Reference: the kinase profiling compilation of Christmann-Franck et al. (2016)
Where “and” joins values, the source holds several entries; their conditions need not be identical. Identical values can stand only once. Values belong to the compound of their own block, whether it stands above or below them.

Key:
Assay in all cases: radiometric filter-binding kinase assay
[1] = target: PRKAA1 PRKAB2 PRKAG1 (human) (UniProt O43741+Q13131+P54619)
[2] = target: PRKACA (human) (UniProt P17612)
[3] = target: SRPK1 (human) (UniProt Q96SB4)
[4] = tested on: AKT1 (human), P31749 [S473D]
[5] = target: NTRK1 (human) (UniProt P04629)
[6] = target: MAP2K1 (human) (UniProt Q02750)
[7] = target: MAP2K2 (human) (UniProt P36507)
[8] = target: EPHB2 (human) (UniProt P29323)
[9] = target: MAPK9 (human) (UniProt P45984)
[10] = target: MST4 (human) (UniProt Q9P289)
[11] = target: CHEK1 (human) (UniProt O14757)
[12] = target: BRSK1 (human) (UniProt Q8TDC3)
[13] = target: BRSK2 (human) (UniProt Q8IWQ3)
[14] = target: FGFR1 (human) (UniProt P11362)
[15] = target: DYRK1A (human) (UniProt Q13627)
[16] = target: PDPK1 (human) (UniProt O15530); settings: compound 10.0 µM
[17] = target: IKBKE (human) (UniProt Q14164)
[18] = target: PLK1 (human) (UniProt P53350)
[19] = target: PKN2 (human) (UniProt Q16513)
[20] = target: NEK2 (human) (UniProt P51955)
[21] = target: TBK1 (human) (UniProt Q9UHD2)
[22] = target: GSK3B (human) (UniProt P49841)
[23] = tested on: ROCK2 (rat); settings: accession and sequence are those of the human protein
[24] = target: STK3 (human) (UniProt Q13188)
[25] = target: YES1 (human) (UniProt P07947)
[26] = target: MAPK3 (human) (UniProt P27361)
[27] = target: TTK (human) (UniProt P33981)
[28] = target: MAPK10 (human) (UniProt P53779)
[29] = target: CAMKK2 (human) (UniProt Q96RR4)
[30] = target: PAK4 (human) (UniProt O96013)
[31] = target: DAPK1 (human) (UniProt P53355)
[32] = target: INSR (human) (UniProt P06213)
[33] = tested on: PAK2 (human), Q13177 [T402E]
[34] = target: IKBKB (human) (UniProt O14920)
[35] = target: TAOK1 (human) (UniProt Q7L7X3)

Sequence of GSK3B (human) (P49841 whole entry, looked up): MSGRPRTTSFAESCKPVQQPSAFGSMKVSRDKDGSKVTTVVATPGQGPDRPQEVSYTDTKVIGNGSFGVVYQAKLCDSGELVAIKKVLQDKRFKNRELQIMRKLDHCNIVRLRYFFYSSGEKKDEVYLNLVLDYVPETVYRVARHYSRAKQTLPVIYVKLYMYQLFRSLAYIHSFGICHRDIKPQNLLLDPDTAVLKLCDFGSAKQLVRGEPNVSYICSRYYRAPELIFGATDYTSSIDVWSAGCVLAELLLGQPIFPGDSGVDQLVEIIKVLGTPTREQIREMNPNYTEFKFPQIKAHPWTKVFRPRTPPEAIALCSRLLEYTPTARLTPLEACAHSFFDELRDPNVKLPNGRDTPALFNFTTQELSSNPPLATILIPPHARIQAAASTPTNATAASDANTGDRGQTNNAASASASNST
Sequence of PDPK1 (human) (O15530 whole entry, looked up): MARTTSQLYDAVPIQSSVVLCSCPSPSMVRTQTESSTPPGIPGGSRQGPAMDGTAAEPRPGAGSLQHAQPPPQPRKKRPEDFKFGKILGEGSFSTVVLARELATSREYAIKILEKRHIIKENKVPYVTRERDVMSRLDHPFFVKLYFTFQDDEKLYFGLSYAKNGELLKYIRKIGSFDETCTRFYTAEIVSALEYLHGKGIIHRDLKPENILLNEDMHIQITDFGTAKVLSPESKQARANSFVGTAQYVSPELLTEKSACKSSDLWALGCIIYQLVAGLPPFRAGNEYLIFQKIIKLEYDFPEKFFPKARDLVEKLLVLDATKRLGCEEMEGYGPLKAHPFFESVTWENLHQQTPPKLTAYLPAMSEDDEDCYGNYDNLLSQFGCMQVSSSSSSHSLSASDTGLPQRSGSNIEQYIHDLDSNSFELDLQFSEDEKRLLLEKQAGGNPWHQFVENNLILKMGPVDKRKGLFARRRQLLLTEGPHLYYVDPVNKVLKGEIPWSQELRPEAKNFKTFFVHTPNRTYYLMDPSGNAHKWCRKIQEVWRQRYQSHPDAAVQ
Sequence of IKBKB (human) (O14920 whole entry, looked up): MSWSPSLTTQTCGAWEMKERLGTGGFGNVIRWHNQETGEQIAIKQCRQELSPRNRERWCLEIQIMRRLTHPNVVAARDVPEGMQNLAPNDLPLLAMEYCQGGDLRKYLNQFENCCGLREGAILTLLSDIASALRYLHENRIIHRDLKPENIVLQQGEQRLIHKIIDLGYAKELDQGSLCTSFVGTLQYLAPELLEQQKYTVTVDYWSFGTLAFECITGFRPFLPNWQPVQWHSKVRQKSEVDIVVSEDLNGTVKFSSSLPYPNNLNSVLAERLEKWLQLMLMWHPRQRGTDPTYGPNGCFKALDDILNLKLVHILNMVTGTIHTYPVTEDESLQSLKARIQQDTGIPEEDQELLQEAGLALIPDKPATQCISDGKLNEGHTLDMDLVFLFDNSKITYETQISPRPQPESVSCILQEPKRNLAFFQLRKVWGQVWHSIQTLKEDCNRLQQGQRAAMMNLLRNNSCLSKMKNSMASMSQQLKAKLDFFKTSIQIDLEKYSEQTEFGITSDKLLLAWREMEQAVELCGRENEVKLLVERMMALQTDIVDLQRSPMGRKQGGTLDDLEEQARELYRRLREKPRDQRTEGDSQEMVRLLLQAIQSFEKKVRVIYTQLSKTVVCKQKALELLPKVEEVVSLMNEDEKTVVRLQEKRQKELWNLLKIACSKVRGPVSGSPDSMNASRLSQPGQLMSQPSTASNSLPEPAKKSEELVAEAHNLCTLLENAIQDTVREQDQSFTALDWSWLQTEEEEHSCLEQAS
Sequence of PLK1 (human) (P53350 whole entry, looked up): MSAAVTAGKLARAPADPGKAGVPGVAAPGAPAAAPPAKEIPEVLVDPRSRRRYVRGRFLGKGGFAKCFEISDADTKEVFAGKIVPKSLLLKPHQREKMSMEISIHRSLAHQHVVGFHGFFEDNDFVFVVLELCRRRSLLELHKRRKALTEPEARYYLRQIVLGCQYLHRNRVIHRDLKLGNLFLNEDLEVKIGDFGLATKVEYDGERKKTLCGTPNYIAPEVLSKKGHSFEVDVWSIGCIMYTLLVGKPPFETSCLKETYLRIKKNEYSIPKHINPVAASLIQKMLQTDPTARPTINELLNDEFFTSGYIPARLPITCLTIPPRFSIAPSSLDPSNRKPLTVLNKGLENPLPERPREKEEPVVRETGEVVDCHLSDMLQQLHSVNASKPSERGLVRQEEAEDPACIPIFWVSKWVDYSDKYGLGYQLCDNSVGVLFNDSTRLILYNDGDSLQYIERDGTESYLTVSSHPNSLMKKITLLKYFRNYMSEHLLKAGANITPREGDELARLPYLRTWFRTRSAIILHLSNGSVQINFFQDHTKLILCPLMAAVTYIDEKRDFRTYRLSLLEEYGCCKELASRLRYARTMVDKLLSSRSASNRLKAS
Sequence of TBK1 (human) (Q9UHD2 whole entry, looked up): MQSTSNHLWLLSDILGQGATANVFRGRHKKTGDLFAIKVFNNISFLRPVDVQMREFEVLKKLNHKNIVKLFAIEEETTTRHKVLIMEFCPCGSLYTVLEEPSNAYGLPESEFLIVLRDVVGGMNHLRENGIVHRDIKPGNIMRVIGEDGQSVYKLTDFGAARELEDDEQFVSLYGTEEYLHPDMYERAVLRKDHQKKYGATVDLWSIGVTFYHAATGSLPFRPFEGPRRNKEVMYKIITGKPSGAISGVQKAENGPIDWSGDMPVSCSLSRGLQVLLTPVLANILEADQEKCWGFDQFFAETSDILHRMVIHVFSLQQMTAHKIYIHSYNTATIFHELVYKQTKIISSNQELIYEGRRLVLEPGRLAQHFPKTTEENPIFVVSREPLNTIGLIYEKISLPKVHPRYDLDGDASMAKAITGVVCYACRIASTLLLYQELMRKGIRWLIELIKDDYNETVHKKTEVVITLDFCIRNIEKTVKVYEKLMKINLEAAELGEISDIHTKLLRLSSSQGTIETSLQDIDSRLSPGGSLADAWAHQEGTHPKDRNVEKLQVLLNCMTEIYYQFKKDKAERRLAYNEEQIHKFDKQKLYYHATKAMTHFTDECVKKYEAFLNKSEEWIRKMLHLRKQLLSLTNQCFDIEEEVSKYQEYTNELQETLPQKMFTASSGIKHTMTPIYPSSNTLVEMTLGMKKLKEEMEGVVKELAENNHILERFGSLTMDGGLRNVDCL
Sequence of TTK (human) (P33981 whole entry, looked up): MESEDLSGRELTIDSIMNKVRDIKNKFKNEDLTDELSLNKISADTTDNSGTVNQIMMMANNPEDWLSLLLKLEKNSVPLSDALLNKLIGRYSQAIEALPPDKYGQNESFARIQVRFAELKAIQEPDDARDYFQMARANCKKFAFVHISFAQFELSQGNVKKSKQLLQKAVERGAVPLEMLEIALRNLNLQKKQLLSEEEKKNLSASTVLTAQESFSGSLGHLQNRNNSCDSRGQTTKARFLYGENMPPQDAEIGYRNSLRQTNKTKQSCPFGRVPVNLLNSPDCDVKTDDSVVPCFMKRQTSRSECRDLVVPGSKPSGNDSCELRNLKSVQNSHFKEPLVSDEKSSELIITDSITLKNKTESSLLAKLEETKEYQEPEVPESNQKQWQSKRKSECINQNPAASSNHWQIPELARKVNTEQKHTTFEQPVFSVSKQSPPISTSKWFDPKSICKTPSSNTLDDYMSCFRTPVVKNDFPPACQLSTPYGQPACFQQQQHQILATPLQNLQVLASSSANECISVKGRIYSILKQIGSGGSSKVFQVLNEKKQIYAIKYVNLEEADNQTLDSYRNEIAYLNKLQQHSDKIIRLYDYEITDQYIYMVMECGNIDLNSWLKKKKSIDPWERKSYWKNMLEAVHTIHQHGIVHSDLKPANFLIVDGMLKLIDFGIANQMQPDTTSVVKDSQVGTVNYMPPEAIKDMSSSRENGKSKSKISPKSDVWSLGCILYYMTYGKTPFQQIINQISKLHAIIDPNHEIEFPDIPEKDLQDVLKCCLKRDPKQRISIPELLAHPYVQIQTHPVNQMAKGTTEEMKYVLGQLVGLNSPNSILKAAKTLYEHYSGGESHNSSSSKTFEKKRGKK
Sequence of SRPK1 (human) (Q96SB4 whole entry, looked up): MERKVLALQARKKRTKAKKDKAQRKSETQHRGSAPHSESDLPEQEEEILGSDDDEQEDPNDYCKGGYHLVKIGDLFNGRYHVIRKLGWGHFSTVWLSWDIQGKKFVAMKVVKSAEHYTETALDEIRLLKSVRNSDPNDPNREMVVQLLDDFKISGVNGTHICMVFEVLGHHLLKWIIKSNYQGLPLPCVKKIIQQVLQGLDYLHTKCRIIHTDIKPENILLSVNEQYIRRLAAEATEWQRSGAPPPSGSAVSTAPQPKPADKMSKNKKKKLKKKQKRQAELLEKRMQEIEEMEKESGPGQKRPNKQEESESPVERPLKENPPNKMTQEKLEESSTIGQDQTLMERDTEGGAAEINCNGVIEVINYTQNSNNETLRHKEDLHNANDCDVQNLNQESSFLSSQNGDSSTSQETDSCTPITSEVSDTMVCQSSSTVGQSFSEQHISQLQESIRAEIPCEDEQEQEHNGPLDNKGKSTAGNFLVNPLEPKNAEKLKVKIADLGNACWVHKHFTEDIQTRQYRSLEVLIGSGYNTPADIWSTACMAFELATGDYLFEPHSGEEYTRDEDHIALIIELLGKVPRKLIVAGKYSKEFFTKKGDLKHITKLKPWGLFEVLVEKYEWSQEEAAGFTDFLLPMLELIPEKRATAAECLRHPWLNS
Sequence of MAP2K2 (human) (P36507 whole entry, looked up): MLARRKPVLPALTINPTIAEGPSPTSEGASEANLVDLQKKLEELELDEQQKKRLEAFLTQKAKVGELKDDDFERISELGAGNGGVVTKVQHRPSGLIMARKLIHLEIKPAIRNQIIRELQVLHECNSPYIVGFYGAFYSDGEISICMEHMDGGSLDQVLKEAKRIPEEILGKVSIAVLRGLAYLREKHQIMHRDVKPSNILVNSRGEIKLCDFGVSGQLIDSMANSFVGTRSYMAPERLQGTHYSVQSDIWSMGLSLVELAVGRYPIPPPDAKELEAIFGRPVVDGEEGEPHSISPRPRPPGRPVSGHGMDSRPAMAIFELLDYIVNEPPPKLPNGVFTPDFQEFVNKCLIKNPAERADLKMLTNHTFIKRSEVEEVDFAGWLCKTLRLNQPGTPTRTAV

- residual activity ([1]; compound 1.0 µM): 70%
- residual activity ([1]; compound 10.0 µM): 31%
- residual activity ([2]; compound 1.0 µM): 88%
- residual activity ([2]; compound 10.0 µM): 88%
- residual activity ([3]; compound 1.0 µM): 91%
- residual activity ([3]; compound 10.0 µM): 77%
- residual activity ([4]; compound 1.0 µM): 40%
- residual activity ([4]; compound 10.0 µM): 10%
- residual activity ([5]; compound 1.0 µM): 27%
- residual activity ([5]; compound 10.0 µM): 14%
- residual activity ([6]; compound 1.0 µM): 67%
- residual activity ([6]; compound 10.0 µM): 26%
- residual activity ([7]; compound 1.0 µM): 64%
- residual activity ([7]; compound 10.0 µM): 21%
- residual activity ([8]; compound 1.0 µM): 111%
- residual activity ([8]; compound 10.0 µM): 47%
- residual activity ([9]; compound 1.0 µM): 50%
- residual activity ([9]; compound 10.0 µM): 15%
- residual activity ([10]; compound 1.0 µM): 58%
- residual activity ([10]; compound 10.0 µM): 17%
- residual activity ([11]; compound 1.0 µM): 59%
- residual activity ([11]; compound 10.0 µM): 26%
- residual activity ([12]; compound 1.0 µM): 48%
- residual activity ([12]; compound 10.0 µM): 29%
- residual activity ([13]; compound 1.0 µM): 46%
- residual activity ([13]; compound 10.0 µM): 32%
- residual activity ([14]; compound 1.0 µM): 52%
- residual activity ([14]; compound 10.0 µM): 22%
- residual activity ([15]; compound 1.0 µM): 35%
- residual activity ([15]; compound 10.0 µM): 7%
- residual activity [16]: 33% and 37%
- residual activity ([17]; compound 1.0 µM): 79%
- residual activity ([17]; compound 10.0 µM): 39%
- residual activity ([18]; compound 1.0 µM): 113%
- residual activity ([18]; compound 10.0 µM): 110%
- residual activity ([19]; compound 1.0 µM): 86%
- residual activity ([19]; compound 10.0 µM): 64%
- residual activity ([20]; compound 1.0 µM): 129%
- residual activity ([20]; compound 10.0 µM): 95%
- residual activity ([21]; compound 1.0 µM): 76%
- residual activity ([21]; compound 10.0 µM): 41%
- residual activity ([22]; compound 1.0 µM): 87%
- residual activity ([22]; compound 10.0 µM): 51%
- residual activity ([23]; compound 1.0 µM): 75%
- residual activity ([23]; compound 10.0 µM): 32%
- residual activity ([24]; compound 1.0 µM): 40%
- residual activity ([24]; compound 10.0 µM): 29%
- residual activity ([25]; compound 1.0 µM): 71%
- residual activity ([25]; compound 10.0 µM): 33%
- residual activity ([26]; compound 1.0 µM): 94%
- residual activity ([26]; compound 10.0 µM): 45%
- residual activity ([27]; compound 1.0 µM): 74%
- residual activity ([27]; compound 10.0 µM): 57%
- residual activity ([28]; compound 1.0 µM): 48%
- residual activity ([28]; compound 10.0 µM): 17%
- residual activity ([29]; compound 1.0 µM): 45%
- residual activity ([29]; compound 10.0 µM): 22%
- residual activity ([30]; compound 1.0 µM): 80%
- residual activity ([30]; compound 10.0 µM): 25%
- residual activity ([31]; compound 1.0 µM): 50%
- residual activity ([31]; compound 10.0 µM): 37%
- residual activity ([32]; compound 1.0 µM): 89%
- residual activity ([32]; compound 10.0 µM): 27%
- residual activity ([33]; compound 1.0 µM): 92%
- residual activity ([33]; compound 10.0 µM): 68%
- residual activity ([34]; compound 1.0 µM): 75%
- residual activity ([34]; compound 10.0 µM): 38%
- residual activity ([35]; compound 1.0 µM): 94%
- residual activity ([35]; compound 10.0 µM): 70%
SMILES: O=C1c2ccccc2-c2n[nH]c3cccc1c23

- residual activity ([1]; compound 10.0 µM): 83%
- residual activity ([2]; compound 10.0 µM): 91%
- residual activity ([3]; compound 10.0 µM): 82%
- residual activity ([4]; compound 10.0 µM): 91%
- residual activity ([5]; compound 10.0 µM): 73%
- residual activity ([6]; compound 10.0 µM): 80%
- residual activity ([7]; compound 10.0 µM): 87%
- residual activity ([8]; compound 10.0 µM): 93%
- residual activity ([9]; compound 10.0 µM): 90%
- residual activity ([9]; compound 100.0 µM): 64%
- residual activity ([10]; compound 10.0 µM): 96%
- residual activity ([11]; compound 10.0 µM): 90%
- residual activity ([12]; compound 10.0 µM): 80%
- residual activity ([13]; compound 10.0 µM): 70%
- residual activity ([14]; compound 10.0 µM): 47%
- residual activity ([14]; compound 100.0 µM): 23%
- residual activity ([15]; compound 10.0 µM): 33%
- residual activity ([15]; compound 100.0 µM): 11%
- residual activity [16]: 84% and 86%
- residual activity ([17]; compound 10.0 µM): 67%
- residual activity ([17]; compound 100.0 µM): 4%
- residual activity ([18]; compound 10.0 µM): 35%
- residual activity ([18]; compound 100.0 µM): 22%
- residual activity ([19]; compound 10.0 µM): 76%
- residual activity ([20]; compound 10.0 µM): 42%
- residual activity ([20]; compound 100.0 µM): 14%
- residual activity ([21]; compound 10.0 µM): 75%
- residual activity ([22]; compound 10.0 µM): 48%
- residual activity ([22]; compound 100.0 µM): 19%
- residual activity ([23]; compound 10.0 µM): 80%
- residual activity ([24]; compound 10.0 µM): 76%
- residual activity ([25]; compound 10.0 µM): 77%
- residual activity ([26]; compound 10.0 µM): 66%
- residual activity ([26]; compound 100.0 µM): 21%
- residual activity ([27]; compound 10.0 µM): 53%
- residual activity ([27]; compound 100.0 µM): 35%
- residual activity ([28]; compound 10.0 µM): 70%
- residual activity ([28]; compound 100.0 µM): 44%
- residual activity ([29]; compound 10.0 µM): 62%
- residual activity ([30]; compound 10.0 µM): 74%
- residual activity ([31]; compound 10.0 µM): 71%
- residual activity ([32]; compound 10.0 µM): 34%
- residual activity ([32]; compound 100.0 µM): 69%
- residual activity ([33]; compound 10.0 µM): 89%
- residual activity ([34]; compound 10.0 µM): 56%
- residual activity ([35]; compound 10.0 µM): 89%
SMILES: Cc1nc(N)sc1-c1csc(Nc2cccnc2)n1
